Test results reported in a melting point compilation (Tetko et al.; mined from patent text by program, amines drawn as free bases though some values may be those of a salt).

| SMILES | melting point [°C] |
| --- | --- |
| COC(=O)Cc1nsc(NC(=O)OCc2ccccc2)n1 | 121 to 123 |
| COc1ccc2c(c1)Nc1cccc(S(=O)(=O)N(C)C)c1S2 | 196 to 198 |
| CN(C)C(=O)COc1ccc(-c2ccc(C3COC(c4c(F)cccc4F)=N3)cc2)cc1 (stereo not drawn) | 78 to 80 |
| O=C(N1CCOCC1)C1(c2onc(-c3ccc(O)cc3)c2-c2ccccc2)CC1 | 195 to 196 |
| O=C(Nc1cc(-c2c(-c3ccc(F)cc3)nc3cccnn23)ccn1)c1ccncc1 | 226 to 227 |
| O=C(O)c1ccc2nc3n(c(=O)c2c1)CCCC3=Cc1ccccc1 | 288 to 290 |
| CC(C)(C)c1ccc(CN(Cc2cccc(OCC(=O)O)c2)S(=O)(=O)c2cccnc2)cc1 | 159 to 160 |
| COc1cccc(Oc2ccc([C@@H]3CCCN4CCS(=O)(=O)N=C34)cc2)c1 | 139 to 140 |
| COCC(=O)N(c1c(C)ccc(Cl)c1C)C1CCOC1=O (stereo not drawn) | 80 to 82 |
| N#CCCNC(=S)C1=CC(CF)(CF)Oc2ccc([N+](=O)[O-])cc21 | 114 to 116 |
| CCOc1ccccc1O[C@@H]1CN(Cc2ccccc2)C[C@H]1O (relative stereo) | 88.5 to 90 |
| COc1cccc(/C=C/c2ccc(C(=O)O)cc2)c1 | 200 to 205 |
| Cc1ccc(C(=O)C=CN(C)C)s1 | 118 to 121 |
| CCc1cc2c(s1)SCCc1cc(=O)n(C)nc1-2 | 168 to 170 |
| O=C(O)c1ccc(CCCCc2ccccc2Oc2ccccc2)cc1 | 120 |
| CSc1ccc2ncc([N+](=O)[O-])c(-c3ccccc3)c2c1 | 131 to 133 |
| Cn1c(=O)cc(-c2ccccc2)c2cc(C(c3ccc(Cl)cc3)n3ccnc3)ccc21 (stereo not drawn) | 155 |
| N#Cc1c(-c2ccccc2)c(Cl)n2c1CNCC2 | 128 to 130 |
| C[C@H](OCc1cc2cc(Cl)ccc2n1S(=O)(=O)c1ccc2ncsc2c1)C(=O)O | 82 |
| Cc1cc2c(cc1S(=O)(=O)N1CCOCC1)S(=O)(=O)NC(C1CCCCC1)N2 (stereo not drawn) | 268 to 271 |
| CCOc1ccc(-c2nc(-c3ccc(OC4OC(COC(C)=O)C(OC(C)=O)C(OC(C)=O)C4OC(C)=O)cc3)cs2)cc1OCC (stereo not drawn) | 180 to 181 |
| COCCOc1ccc(C=NOC)cc1O | 63 to 64 |
| COC(=O)c1sc(Br)cc1N | 173 to 176 |
| CCOC(OCC)N1C(=O)OC(C)(C)c2cc(-c3cc(F)cc(C#N)c3)ccc21 | 123 to 124 |
| O=C(Nc1ccc(Cl)c(Cl)c1)NS(=O)(=O)c1ccc(Cl)cc1 | 195 to 196 |
| CC1(C)CC(NC(=O)Nc2ccc(C(F)(F)F)cc2)CC(C)(C)C1=O | 152 to 153 |

| SMILES | melting point [°C] |
| --- | --- |
| CC(C)(C)OC(=O)NCCCCn1cnc2c(Cl)nc3ccccc3c21 | 148 to 150 |
| CCCCCCCCCCCC(=O)N1CCN(CCO)CC1 | 38 to 40 |
| CS(=O)(=O)N1CCSc2ccccc2C1 | 98 to 100 |
| Oc1ccc(OCCCCOc2ccc(O)cc2)cc1 | 202 to 204 |
| COCCCNC(=O)Nc1ccc(N2CCOCC2)cc1C(=O)NCC1CCN(C(c2ccccc2)c2ccccc2)CC1 | 175 to 176 |
| O=S(=O)(Nc1cc(Br)nc(Br)c1)c1cccc(Cl)c1 | 187 to 189 |
| CC(C)(C)c1cc(C=O)cc(I)c1O | 124 |
| CCCSc1nc(-c2ccc(C#N)cc2)cn1-c1ccc(I)cc1 | 110 to 115 |
| C=Cc1nc(-c2cn(C)c3ccccc23)no1 | 54 to 55 |
| COCN1CC(CN)c2c[nH]c3cccc(c23)C1=O (stereo not drawn) | 160 to 163 |
| COc1ccccc1Oc1c(NS(=O)(=O)c2ccc(C(C)(C)C)cc2)nc(-c2ncccn2)nc1OCCOc1ccc(Br)cc1 | 251 to 256 |
| Cn1c(C(F)(F)F)cc(=O)n(-c2ccc3snc(CC(=O)O)c3c2)c1=O | 240 to 242 |
| COC(=O)NC1CN(C(=O)Nc2ccc(OC(F)(F)F)cc2)NC1c1ccc(Cl)cc1 (stereo not drawn) | 107 to 114 |
| CCCOc1ccccc1-c1nc2nc(NCC(=O)OCC)ncc2c(=O)[nH]1 | 174 to 176 |
| CCOc1c(/C=C/c2ccc(NS(C)(=O)=O)cc2)cc(-n2ccc(=O)[nH]c2=O)cc1C(C)(C)C | 265 to 266 |
| O=Cc1c[nH]c(-c2cccs2)c1 | 198 to 199 |
| C=CCC(C)(C)C(NC(=O)c1ccc(Cl)cc1)NC(=NC#N)Nc1cccnc1 (stereo not drawn) | 97 to 98 |
| Nc1cccc(-c2cc3ccccc3[nH]2)c1 | 166 |
| CN1C(=O)C(CCCCBr)Sc2ccccc21 (stereo not drawn) | 116 |
| O=C1Nc2cc(F)c(F)cc2N2CCN(C(=O)OCc3ccccc3)CC12 (stereo not drawn) | 226 to 228 |
| COC1(C)CSC2C(NC(=O)Cc3ccccc3)C(=O)N2C1C(=O)OCC(Cl)(Cl)Cl (stereo not drawn) | 132 to 133 |
| ON=C1CCc2c([nH]c3ccccc23)C1 | 196 |
| CC(C)N(N=O)c1ccc(N(N=O)c2ccccc2)cc1 | 85 to 89 |
| CCOCC1OC(n2cnc3c(NCc4cccc(I)c4)ncnc32)C(O)C1O (stereo not drawn) | 164 to 166 |
| COc1ccc(C2=NNS(=O)(=O)Cc3cc4nsnc4cc32)cc1OC | 228 to 230 |
| CN(N=Cc1ccc(C#N)cc1)C(=O)c1[nH]c2ccccc2c1-c1ccccc1 | 194 to 196 |

| SMILES | melting point [°C] |
| --- | --- |
| Cc1nc2cc(C(F)(F)F)ccc2n1-c1ccc(OC(C)CCC(=O)O)cc1 (stereo not drawn) | 67 to 68 |
| O=[N+]([O-])c1ccc(C(O)C(CO)[N+](=O)[O-])cc1 (stereo not drawn) | 105 to 107 |
| CCCCCC(=O)NS(=O)(=O)CCc1cc(OC(C)C)nn1Cc1ccc(Cl)cc1Cl | 107 to 108 |
| FC(F)(F)c1cccc(Nc2nccc(-c3ccncc3)n2)c1 | 197 to 198 |
| CC(C)(C)C1=CCC(C(=O)O)CC1 (stereo not drawn) | 141 to 143 |
| CC(C)(C)c1cc(C=C(C#N)c2ccccn2)cc(C(C)(C)C)c1 | 90 to 93 |
| CN(C(=O)c1ccccc1)C(=N[N+](=O)[O-])NCc1cnc(Cl)s1 | 170 to 172 |
| CC(=O)c1ccc(Nc2ccncc2N)cc1 | 165 to 166 |
| O=C(O)CCCCCOc1cc(-c2ccc(NC(=O)C(F)(F)F)cc2)cc(-c2ccccc2)n1 | 178 to 180 |
| CCCCOc1c2c(nc3c1cnn3CC)C(O)c1ccccc1CC2 (stereo not drawn) | 163 to 165 |
| COC(=O)c1sc([N+](=O)[O-])cc1N=NN(C)C | 128 to 130 |
| O=C1NC(=O)[C@@]2(C[C@@H](C(=O)NO)Oc3ccc(F)cc32)N1 | 178 |
| CCOC(=O)c1cnc2c(c(-c3ccccc3)nn2C)c1N(C)S(=O)(=O)c1ccc(Oc2ccncc2)cc1 | 128 to 131 |
| Nc1nccc(Oc2ccc3c(C(=O)Nc4cccc(C(F)(F)F)c4)cnn3c2)n1 | 102 to 104 |
| CCc1cc2c(Cl)ccc(-n3c(=O)cc(C(F)(F)F)n(C)c3=O)c2o1 | 159 to 160 |
| CC(C)c1nc2cc(NC(=O)OC(C)(C)C)ccn2n1 | 215 to 218 |
| CC(C)c1cccc(C(C)C)c1NC(=O)NC1CCc2ccccc2C1 (stereo not drawn) | 214 to 215 |
| Cc1nc(-c2ccc3c(c2)CCCC3)c(CO)o1 | 132 to 133 |
| Oc1c2c(nn1-c1ccccn1)CCc1cc(-c3ccc4c(c3)OCO4)ccc1-2 | 205 to 206 |
| CN(C[C@@H](CCO)c1ccc(Cl)c(Cl)c1)C(=O)c1ccccc1 | 123 to 125 |
| CCOC(=O)C1(C(=O)OCC)CCNC(=O)C1CCO (stereo not drawn) | 120 to 121 |
| CNC(=O)N1C(=O)C(=O)c2cc(F)ccc21 | 230 to 232 |
| O=C(CCl)Nc1cccc(C(=O)Cl)c1 | 106 to 108 |
| CCOC(=O)C(=CNc1nncs1)C(=O)OCC | 107 to 111 |
| COC(=O)C(C)(C)Cc1ccc2cc(CC(C)(C)C(=O)OC)ccc2c1 | 108 to 110 |
| O=C(Cl)c1c(Br)c(Br)c([N+](=O)[O-])c2c1OCCO2 | 215 |

| SMILES | melting point [°C] |
| --- | --- |
| CCCOc1ccc(-c2ccc3c(c2)C=C(C(=O)Nc2ccc(CN(C)C4CCOCC4)cc2)CCN3C)cc1 | 149 to 151 |
| COc1cc(C)c(NS(C)(=O)=O)cc1C(=O)NCC1CCCO1 (stereo not drawn) | 207 to 208 |
| O=C(O)Cc1nn(Cc2nc3cc(Br)ccc3s2)c(=O)c2ccccc12 | 214 |
| COc1ccc(/C=N/Nc2ccccc2C(=O)O)cc1OC1CCCC1 | 174 to 176 |
| Brc1cccc(Oc2ncccc2OCCCc2ccncc2)c1 | 111 to 113 |
| CCOC(=O)c1[nH]c(C)nc1C | 165 to 166 |
| NNc1nc2c(Cl)cccc2s1 | 232 to 235 |
| O=CN1CCC(O)(c2ccccc2Cc2ccccc2)CC1 | 171 to 174 |
| O=c1c2ccccc2[nH]c2ccc(O)c(Cl)c12 | 184 to 191 |
| O=C(OC[C@H]1CC(=O)[C@@H]1COC(=O)c1ccccc1)c1ccccc1 | 93 to 94 |
| C=CCOc1cccc2nn(C)c(S(N)(=O)=O)c12 | 143 to 144 |
| CCCCCCCCCCCCCC=C1CC(CO)(COC(C)=O)OC1=O (racemic) | 58 to 59 |
| NC(=O)c1ccccc1-c1ccc2ccc(SCc3ccccc3)nc2n1 | 144 to 145 |
| N#Cc1sc(N)c(C#N)c1Cl | 259 |
| O=C1C(CCO)Oc2cc([N+](=O)[O-])ccc2N1Cc1ccccc1 (stereo not drawn) | 102 to 105 |
| CCOC(=O)C(Br)=NNc1ccccc1 | 82 to 83 |
| COC(=O)c1ccc(Cc2cc3cc(Cl)ccc3n2S(=O)(=O)N2CCCCC2)cc1 | 133 |
| O=S(=O)(c1ccc(O)cc1)c1ncn(-c2ccccc2)c1-c1ccccc1 | 300 |
| COc1cc2cc(CO)c(CO)c(C)c2cc1OC | 180 to 182 |
| O=C(O)COc1ccc(SCc2cc(-c3ccc(Cl)cc3)on2)c2c1CCC2 | 112 to 114 |
| CN1CCN(C2=Nc3ccccc3Cn3cccc32)CC1 | 139 to 141 |
| O=C1CCCN1CCCNCc1ccc(-c2cc3ncnc(Nc4ccc5[nH]ccc5c4)c3s2)cc1 | 139 to 146 |
| CC(C)(C1OCCO1)C(O)(Cn1cncn1)c1ccc(F)cc1 (stereo not drawn) | 90 |
| CC1(C)Oc2ccc(C#N)cc2[C@@H](NC(=O)Nc2cccc(-c3cnc[nH]3)c2)[C@@H]1O | 170 to 180 |
| O=S(=O)(c1ccc(CO)cc1)N1CCCC1c1ccc(F)cc1 (racemic) | 107 |
